Source: BindingDB's records for doi:10.1111/j.1432-1033.1991.tb15734.x (Universit&Eacute, 1991)
Several values for one entry are separate records, joined by “and”; a condition that tells them apart may be missing. Identical values can stand only once. Non-standard residues stand in square brackets, D forms with d. Residues, ends and D or L forms follow the SMILES beside them. ξ: configuration not given here. Ile(3ξ) = CCC(C)[C@H](N)C(=O)O

Columns and labels:
VIP peptides [1] = biological target: T1, VIP peptides (Homo sapiens, UniProt P01282)
T1 sequence (P01282 whole entry): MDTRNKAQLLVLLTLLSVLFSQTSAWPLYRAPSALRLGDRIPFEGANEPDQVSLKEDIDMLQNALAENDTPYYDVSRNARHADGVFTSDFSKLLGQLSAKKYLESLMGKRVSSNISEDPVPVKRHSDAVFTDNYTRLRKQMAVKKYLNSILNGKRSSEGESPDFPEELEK

VIP peptides [2] = biological target: T2, VIP peptides (Rattus norvegicus, UniProt P01283)
T2 sequence (P01283 whole entry): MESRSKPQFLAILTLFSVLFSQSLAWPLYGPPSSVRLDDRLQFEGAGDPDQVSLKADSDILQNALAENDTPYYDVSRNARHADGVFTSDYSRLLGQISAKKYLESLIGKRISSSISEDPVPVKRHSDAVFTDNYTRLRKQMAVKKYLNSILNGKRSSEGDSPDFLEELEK

Ki (VIP peptides [1]) [µM] | Ki (VIP peptides [2]) | Compound
0.15 |  | CC[C@H](C)[C@H](NC(=O)[C@H](CO)NC(=O)[C@H](CC(N)=O)NC(=O)[C@H](CC(C)C)NC(=O)[C@H](Cc1ccc(O)cc1)NC(=O)[C@H](CCCCN)NC(=O)[C@H](CCCCN)NC(=O)[C@@H](NC(=O)[C@H](C)NC(=O)[C@H](CCSC)NC(=O)[C@H](CCC(N)=O)NC(=O)[C@H](CCCCN)NC(=O)[C@H](CCCN=C(N)N)NC(=O)[C@H](CC(C)C)NC(=O)[C@H](CCCN=C(N)N)NC(=O)[C@@H](NC(=O)[C@H](Cc1ccc(O)cc1)NC(=O)[C@H](CC(N)=O)NC(=O)[C@H](CC(=O)O)NC(=O)[C@@H](NC(=O)[C@H](Cc1ccccc1)NC(=O)[C@@H](NC(=O)[C@H](C)NC(=O)[C@H](CC(=O)O)NC(=O)[C@H](CO)NC(=O)[C@@H](N)Cc1cnc[nH]1)C(C)C)[C@@H](C)O)[C@@H](C)O)C(C)C)C(=O)N[C@@H](CC(C)C)C(=O)N[C@@H](CC(N)=O)C(=O)O [CAS_37221-79-7]
 | 0.0009 µM and 0.0003 µM | CC[C@H](C)[C@H](NC(=O)CNC(=O)[C@H](CC(=O)O)NC(=O)[C@H](CO)NC(=O)[C@@H](N)Cc1cnc[nH]1)C(=O)N[C@@H](Cc1ccccc1)C(=O)N[C@H](C(=O)N[C@@H](CC(=O)O)C(=O)N[C@@H](CO)C(=O)N[C@@H](Cc1ccc(O)cc1)C(=O)N[C@@H](CO)C(=O)N[C@@H](CCCNC(=N)N)C(=O)N[C@@H](Cc1ccc(O)cc1)C(=O)N[C@@H](CCCNC(=N)N)C(=O)N[C@@H](CCCCN)C(=O)N[C@@H](CCC(N)=O)C(=O)N[C@@H](CCSC)C(=O)N[C@@H](C)C(=O)N[C@H](C(=O)N[C@@H](CCCCN)C(=O)N[C@@H](CCCCN)C(=O)N[C@@H](Cc1ccc(O)cc1)C(=O)N[C@@H](CC(C)C)C(=O)N[C@@H](C)C(=O)N[C@@H](C)C(=O)N[C@H](C(=O)N[C@@H](CC(C)C)C(=O)NCC(=O)N[C@@H](CCCCN)C(=O)N[C@@H](CCCNC(=N)N)C(=O)N[C@@H](Cc1ccc(O)cc1)C(=O)N[C@@H](CCCCN)C(=O)N[C@@H](CCC(N)=O)C(=O)N[C@@H](CCCNC(=N)N)C(=O)N[C@H](C(=O)N[C@@H](CCCCN)C(=O)N[C@@H](CC(N)=O)C(=O)N[C@@H](CCCCN)C(N)=O)C(C)C)C(C)C)C(C)C)[C@@H](C)O [PACAP]
0.002 | 0.01 µM and 0.004 µM and 0.03 µM | CCC(C)[C@H](NC(=O)CNC(=O)[C@H](CC(=O)O)NC(=O)[C@@H](N)CO)C(=O)N[C@@H](Cc1ccccc1)C(=O)N[C@H](C(=O)N[C@@H](CC(=O)O)C(=O)N[C@@H](CO)C(=O)N[C@@H](Cc1ccc(O)cc1)C(=O)N[C@@H](CO)C(=O)N[C@@H](CCCN=C(N)N)C(=O)N[C@@H](Cc1ccc(O)cc1)C(=O)N[C@@H](CCCN=C(N)N)C(=O)N[C@@H](CCCCN)C(=O)N[C@@H](CCC(N)=O)C(=O)N[C@@H](CCSC)C(=O)N[C@@H](C)C(=O)N[C@H](C(=O)N[C@@H](CCCCN)C(=O)N[C@@H](CCCCN)C(=O)N[C@@H](Cc1ccc(O)cc1)C(=O)N[C@@H](CC(C)C)C(=O)N[C@@H](C)C(=O)N[C@@H](C)C(=O)N[C@H](C(=O)N[C@@H](CC(C)C)C(=O)NCC(=O)N[C@@H](CCCCN)C(=O)N[C@@H](CCCN=C(N)N)C(=O)N[C@@H](Cc1ccc(O)cc1)C(=O)N[C@@H](CCCCN)C(=O)N[C@@H](CCC(N)=O)C(=O)N[C@@H](CCCN=C(N)N)C(=O)N[C@H](C(=O)N[C@@H](CCCCN)C(=O)N[C@@H](CC(N)=O)C(=O)N[C@@H](CCCCN)C(N)=O)C(C)C)C(C)C)C(C)C)[C@@H](C)O (stereo partly drawn) [PACAP(2-38)] (H-SDG[Ile(3ξ)]FTDSYSRYRKQMAVKKYLAAVLGKRYKQRVKNK-NH2)
0.008 |  | H-HSDGIFTDSYTRLRKQMAVKKYLNSILN-OH [PACAP-VIP]
0.0003 | 0.0015 µM and 0.0005 µM and 0.001 µM | CC[C@H](C)[C@H](NC(=O)CNC(=O)[C@H](CCC(=O)O)NC(=O)[C@H](CO)NC(=O)[C@@H](N)Cc1cnc[nH]1)C(=O)N[C@@H](Cc1ccccc1)C(=O)N[C@H](C(=O)N[C@@H](CC(=O)O)C(=O)N[C@@H](CO)C(=O)N[C@@H](Cc1ccc(O)cc1)C(=O)N[C@@H](CO)C(=O)N[C@@H](CCCNC(=N)N)C(=O)N[C@@H](Cc1ccc(O)cc1)C(=O)N[C@@H](CCCNC(=N)N)C(=O)N[C@@H](CCCCN)C(=O)N[C@@H](CCC(N)=O)C(=O)N[C@@H](CCSC)C(=O)N[C@@H](C)C(=O)N[C@H](C(=O)N[C@@H](CCCCN)C(=O)N[C@@H](CCCCN)C(=O)N[C@@H](Cc1ccc(O)cc1)C(=O)N[C@@H](CC(C)C)C(=O)N[C@@H](C)C(=O)N[C@@H](C)C(=O)N[C@H](C(=O)N[C@@H](CC(C)C)C(N)=O)C(C)C)C(C)C)[C@@H](C)O [PACAP(1-27)]
0.05 |  | H-HSDAVFTDSYTRLRKQMAVKKYLNSILN-NH2 [[Ser9]VIP]
0.015 |  | H-HSDAVFTDSYTRYRKQMAVKKYLNSILN-NH2 [[Ser9,Tyr13]VIP]
0.1 |  | H-HSDAVFTDNYTRLRKQMAVKKYLAAVL-NH2 [VIP-PACAP]
0.04 |  | H-HSDAVFTDNYTRYRKQMAVKKYLNSILN-OH [[Tyr13]VIP]

Compound | Ki (VIP peptides [1]) [µM] | Ki (VIP peptides [2])
[C][C][C]([C])[C@H]([N]C(=O)[C][N]C(=O)[C@H]([C][C]C([O])=O)[N]C(=O)[C@@H]([N])[C][O])C(=O)[N][C@@H]([C]c1ccccc1)C(=O)[N][C@H](C(=O)[N][C@@H]([C]C([O])=O)C(=O)[N][C@@H]([C][O])C(=O)[N][C@@H]([C]c1ccc([O])cc1)C(=O)[N][C@@H]([C][O])C(=O)[N][C@@H]([C][C][C]N=C([N])[N])C(=O)[N][C@@H]([C]c1ccc([O])cc1)C(=O)[N][C@@H]([C][C][C]N=C([N])[N])C(=O)[N][C@@H]([C][C][C][C][N])C(=O)[N][C@@H]([C][C]C([N])=O)C(=O)[N][C@@H]([C][C]S[C])C(=O)[N][C@@H]([C])C(=O)[N][C@@H]([C]([C])[C])C(=O)[N][C@@H]([C][C][C][C][N])C(=O)[N][C@@H]([C][C][C][C][N])C(=O)[N][C@@H]([C]c1ccc([O])cc1)C(=O)[N][C@@H]([C][C]([C])[C])C(=O)[N][C@@H]([C])C(=O)[N][C@@H]([C])C(=O)[N][C@@H]([C]([C])[C])C(=O)[N][C@@H]([C][C]([C])[C])C([N])=O)[C@@H]([C])[O] [PACAP(2-27)] | 0.02 | 0.4 µM and 0.04 µM
